Melting point data for 87 compounds are collected here from a melting point compilation (Tetko et al.; mined from patent text by program, amines drawn as free bases though some values may be those of a salt).

A value given as a limit tells only on which side of the number the result lay.

The compound `CCC(OC)(c1ccc(OCc2ccc3ccccc3n2)c(OC)c1)c1nccs1` (configuration not stated) yielded a melting point of 100 to 102 °C. For the compound `CN1C(=O)C2(COc3cc4c(cc32)OCCO4)c2c(NC(=O)c3ccccc3)cccc21` (configuration not stated), the melting point fell in the range of 192 to 194 °C.

Compound `CC(C)(C)c1cc(C(=O)c2cc[nH]n2)cc(C(C)(C)C)c1O` gave a melting point of 216 to 219 °C. Then `CC(c1oc2ccccc2c(=O)c1-c1cccc(F)c1)n1nc(-c2ccc(F)cc2O)c2c(N)ncnc21` (configuration not stated), with 235 to 237 °C. Then `Cc1cc(-n2cnn(Cc3ccc(F)cc3)c2=O)sc1C(=O)NCc1ncco1`, with 163 to 165 °C; and `Ic1c[nH]c2nccc(OC3CCCCC3)c12`, with 199 to 201 °C. Then `CC(C)(C(=O)O)c1ccc(C(=O)Nc2cn3cc(-c4cn[nH]c4)ccc3n2)cc1`, with 306 to 307 °C. In the case of `O=C1NCCN1Cc1ccc2ccccc2c1`, the melting point was 149 to 152 °C.

In turn, `Nc1ccc(Cl)cc1C(=O)Nc1ccc(S(=O)(=O)N2CCOCC2)cc1` returned a melting point of 229 to 231 °C. Then `CN(C)c1ccc(OCC(=O)N[C@@H](CC(N)=O)C(=O)N[C@@H](Cc2ccccc2)[C@H](O)C(=O)N2CCC[C@H]2C(=O)NC(C)(C)C)cc1`, with 102 to 104 °C. Then `O=c1[nH]c(=O)c2c1c1oc3ccccc3oc1c1[nH]c3cc(O)ccc3c12`, with above 340 °C; and `Cc1nc(N2CCN(Cc3nccc4ccccc34)C2=O)sc1C(=O)NCc1cccnc1`, with 151 to 153 °C. As to `CCCCCOC1=C(c2ccccc2)C(CCC(=O)O)OC1=O` (configuration not stated), the melting point lay within 86 to 87 °C. Then `CN1NN=C(c2ccc3c(c2)S(=O)(=O)c2ccccc2C3=O)N1`, with 204 to 205 °C; and `CC(C)(C)c1nnc(NC(=O)CC(=O)CBr)s1`, with 128 to 130 °C; and `COc1c(NC(=O)c2ccccc2)cccc1C(=O)NC1C(Cl)=CC(C(F)(c2ccc(Cl)cc2)C(F)(F)F)=CC1(Cl)OC` (configuration not stated), with 163 to 166 °C. Then `N#Cc1nn(-c2ccc(C=O)cc2)nc1-c1ccccc1`, with 111 to 115 °C; and `Cc1cc(N)n(C(=NO)c2cccc([N+](=O)[O-])c2)n1`, with 224 to 226 °C; and `Cc1ccc(NC(=O)c2c(C)cccc2N)cc1`, with 217 to 220 °C.

Compound `Nc1ncnc2c1c(-c1ccc(NS(=O)(=O)c3ccccc3)c(O)c1)cn2C1CCCC1` returned a melting point of 265 to 267 °C.

Turning to `N#Cc1ccc(CNC(=O)Cc2ccc(O)cc2)cc1`, the melting point lay in the range of 176 to 178 °C. Then `O=C(O)CCC=C(c1ccccc1)c1ccccc1`, with 80 to 81.5 °C; and `CSc1ncc(Cc2cnc3ccccc3c2)c(=O)[nH]1`, with 220 to 221 °C; and `O=C(N[C@@H](CO)c1ccccc1)c1ccco1`, with 130 to 131 °C. Then `Oc1ccc(OCc2nnc(C3CC3)s2)cc1`, with 79 to 83 °C; and `CC(=O)CN1CCc2c(c(=O)oc3cc(C)c(N)cc23)C1`, with 196 to 198 °C; and `OCc1csc(N2CCCCC2)n1`, with 89 to 90 °C.

`Cn1nc(-c2cc(O)c(C#N)cc2F)c(Cl)c1C(F)(F)F`: the melting point turned out to be 151 °C. Then `CCNC(=N)NC(=O)Cc1cccc(OC)c1`, with 108 to 110 °C. Then `Cc1cc(F)ccc1C(=C(C=CC(O)CC(=O)CC(=O)OC(C)(C)C)c1nnnn1C)c1ccc(F)cc1C` (configuration not stated), with 65 to 72 °C; and `O=C(Oc1ccccc1)Oc1c2c(nc3ccccc13)CCN(C(=O)Oc1ccccc1)CC2`, with 232 °C. Then `CCOCc1nc2c(N)nc3ccccc3c2n1Cc1cc(-c2ccc(F)cc2)no1`, with 203 to 204 °C. Compound `CCOc1ccc(C=C2N=C(C)OC2=O)cc1OCC` gave a melting point of 117 to 119 °C.

For the compound `Cn1c(=O)cc(-c2cccc(Cl)c2)c2cc(C(O)(c3ccc(Cl)cc3)c3cnccc3N)ccc21` (configuration not stated), the melting point turned out to be 262 °C. The compound `O=C(c1ccc(OCc2ccccc2)cc1O)c1ccc(OCc2ccccc2)cc1O` had a melting point of 140 to 142 °C. Then `COc1ccc2c(c1)CC(=O)c1sccc1C2=C1CCN(C)CC1`, with 157 to 158 °C. Then `CCc1nn(C2CCCC2)c(N)c1C#N`, with 171 to 173 °C; and `COC(=O)N[C@H](C(=O)NN(Cc1ccc(-c2cncs2)cc1)C[C@H](O)[C@H](Cc1ccccc1)NC(=O)[C@@H](NC(=O)OC)C(C)(C)C)C(C)C`, with 134 to 135 °C. Compound `COc1cc(Nc2nccc(-c3ccc(NCCCN4CCN(C)CC4)nc3)n2)cc(OC)c1OC` showed a melting point of 183 to 184 °C.

`CCCCNCc1nc(-c2ccc3c(c2)Nc2ccccc2S3)cs1` yielded a melting point of 139 to 141 °C.

`Cc1c([N+](=O)[O-])c(=O)n(-c2cc(C(=O)OC(C)C)c(Cl)cc2F)c(=O)n1C` showed a melting point of 129 to 131 °C. Then `CC(=O)Nc1ccc(OCc2nc3ccccc3s2)cc1C`, with 179 to 182 °C; and `C=C(c1cc(F)ccc1OCCCC)n1ccnc1`, with 107 to 109 °C. As for `CS(=O)(=O)c1ccc(-c2cnn(CC(F)(F)F)c(=O)c2SCc2ccccc2)cc1`, the melting point is 108 to 111 °C. As to `CC(C)c1cc2ncccc2cc1Oc1cnc(N)nc1N`, the melting point lay within 207 to 208 °C. On to `CC1(C)N(CC(N)=O)C(=O)CN1C(=O)CN1CCCC1=O`, for which the melting point lay in the range of 225 to 227 °C. Then `Nc1ccc(Oc2cc(Cl)ncn2)cc1`, with 136 to 138 °C; and `FC(F)(F)c1cc(NC(=S)N[C@@H]2CCCC[C@H]2NCc2ccccc2)cc(C(F)(F)F)c1`, with 140 to 141 °C; and `COc1cc2cc(-c3ccccc3Cl)sc2c(Cl)c1Cl`, with 170 to 171 °C. With `CS(=O)(=O)c1csc(CC(=O)C(=O)c2ccc(F)cc2)c1`, the melting point lay in the range of 174 to 175 °C. Then `CN(C)C(=O)CCc1ccc(OCCN(C)c2nc3ccccc3o2)cc1`, with 103 to 105 °C; and `CC1N=C(c2ccccc2F)c2cc(C(C)N)ccc2N(C)C1=O` (configuration not stated), with 48 to 50 °C. With `CCCCCCCCCCCCCCOc1ccc([N+](=O)[O-])cc1OCCCCCCCCCCCCCC`, the melting point lay in the range of 64 to 66 °C. Then `CSc1ccc(-c2nc(SC)c(C#N)c(=O)n2-c2ccc(F)cc2)cc1`, with 219 to 221 °C; and `O=C(O)c1ccc(C(=O)NOCc2ccc3ccccc3c2)cc1`, with 241 to 243 °C; and `CCCCCCCCCCCCC1=C(OC(C)=O)C(=O)c2c(Cl)cccc2C1=O`, with 57 to 59 °C. In turn, `CCCOC(=O)NCCCC1(O)c2ccccc2C=Cc2c(C)cccc21` (configuration not stated) came in with a melting point of 157 to 159 °C. Then `CNc1ccc(-c2nc3ccc(F)cc3s2)cc1`, with 154 °C; and `COc1cc(C(=O)C=Cc2ccncc2)ccc1OCC(=O)Nc1nc2ccccc2s1`, with 206 to 207 °C. Then `Cc1ccc(-c2[nH]c(C3CCCCC3)nc2C(=O)O)cc1`, with 205 to 206 °C; and `CCN(CC)C(=O)n1cc(F)c(=O)[nH]c1=O`, with 157 to 160 °C. Then `COc1ccc(N2C(=O)C(N3C(=O)c4ccccc4C3=O)C2C(C)=Cc2ccccc2)cc1` (configuration not stated), with 105 to 107 °C; and `CCSc1nsc(NC(=O)N(C)C)c1C(N)=O`, with 147 °C. Compound `CC(C(N)=O)c1ccc2c(c1Cl)C(=O)Cc1ccccc1S2` (configuration not stated) had a melting point of 180 to 181 °C. Then `O=C1C=CC(OC2CCCC2)N1` (configuration not stated), with 81 to 82 °C.

For the compound `CN1C(=O)C2C3Oc4ccccc4OC3=C3C(Oc4cccnc4N3C(=O)Oc3ccccc3)C2C1=O` (configuration not stated), the melting point came out at 245 °C. Then `CCn1ncc(C(=O)c2ccc(S(C)(=O)=O)c(C3=NOCC3)c2C)c1OCC(=O)c1ccccc1`, with 177 to 179 °C; and `O=C(NC1CC1)c1[nH]c2ccc(Cl)cc2c1S(=O)(=O)c1ccccc1`, with 242 to 243 °C. Then `Cc1cc(C)c(N2CCCCC2)cc1NS(=O)(=O)C(F)(F)F`, with 92 to 94 °C; and `CC1(C)CCC(C)(C)c2cc(-c3cc(-c4ccc(C(=O)O)cc4)ccc3OCCCCCC(=O)O)ccc21`, with 245 °C. Then `O=C(Nc1ccc(Cl)c(C(F)(F)F)c1)C1C(=O)C2CCC(C2)C1=O` (configuration not stated), with 136 to 137 °C; and `OCCCCn1ccc(NC(=S)Nc2ccccc2)n1`, with 112 to 117 °C. For `Cc1c(CCCC=CC(=O)O)cccc1Cc1ccc(Cl)cc1`, the melting point was determined as 115 °C. Then `CNc1nc(Nc2ccc(Cl)c(Cl)c2)ncc1NC(=O)C(C)C`, with 284 to 286 °C; and `COc1ccc(CN(CCN(C)CCCCCCNC(=O)NCCSCc2csc(NC(=N)N)n2)c2ccccn2)cc1`, with 60 °C; and `COC(=O)c1ccc(C)c(SC(=O)c2ccc3c(c2)C(C)(C)CCC3(C)C)c1`, with 120 °C. Then `CCC(=O)Nc1cc(-c2c(-c3ccc(Cl)cc3)nc3cccnn23)ccn1`, with 204 to 205 °C; and `Nc1nc(=O)n(-c2ccsc2)cc1F`, with 228 to 229 °C. Then `O=C(O)CCCCc1cc2ccccc2n1-c1cccnc1`, with 143 to 144 °C; and `O=S(=O)(Nc1ccc(C(F)(F)F)cc1Cl)c1cc(C(F)(F)F)ccc1Cl`, with 122 to 123 °C.

The compound `O=C1OC(=O)c2c(-c3ccccc3)c3ccccc3c3cccc1c23` showed a melting point of 158 to 161 °C. Then `NC(=O)c1nnn(Cc2ccc(Cl)c(C(Cl)=C(Cl)Cl)c2)c1N`, with 174 to 175 °C; and `CC(=O)Oc1cc(C)ccc1C1CCN(CCCCNC(=O)c2ccc(-c3ccc(C#N)cc3)cc2)CC1`, with 128 to 130 °C. Then `CN1CCN(C(=O)Cn2c(=O)sc3ncc(Cl)cc32)CC1`, with 198 to 200 °C; and `CCCCc1ccc(-c2coc(C(=O)O)cc2=O)cc1`, with 193 to 195 °C. Then `O=C(CCCCCCOc1ccc(OCc2ccccc2)cc1)C(F)(F)F`, with 82 to 83 °C; and `O=C(NO)c1ccc(CNC(=O)c2[nH]c(-c3ccoc3)cc2-c2ccc(O)cc2)cc1`, with 159 to 160 °C.

One may read the melting point as the temperature of the solid-liquid transition.
